Key:
Format in all cases: in vivo
[1] = tested on: barnyardgrass (Echinochloa crusgalli); test: Example 21, Procedure II: Herbicide No. 1 + SUTAN PLUS (butylate + antidote) with antidotes
Method: (§1) Containers were filled and compacted with a fumigated silt loam top soil to a depth of about 1.3 cm from the top of the container. A first container was designated as an untreated control, a second container was designated as a herbicide control, and a third container was designated as a herbicide + antidote test container. Each of the containers was seeded with a crop species. A measured amount of herbicide dispersed or dissolved in acetone was applied to a measured quantity of soil. To this same quantity of soil treated with herbicide, there was added a measured amount of antidote dispersed or dissolved in acetone. The quantity of soil treated with the herbicide and antidote was thoroughly mixed to incorporate the herbicide and antidote in the soil uniformly. The seed bed in the third container of soil was covered with the soil treated with the herbicide and antidote and the container was leveled. For each test series, the seed beds of the first and second containers were likewise covered by soil layers. the cover layer of the first container was not treated with herbicide or antidote.
(§2) The containers were then placed on a bench in a greenhouse and sub-irrigated as required for the duration of the test. […] Plant response is measured in terms of percent injury. Antidote efficacy is indicated as the difference in plant injury by the herbicide(s) without the antidote and with the antidote.
(§3) This procedure is the same as Procedure I, but modified in the manner that after incorporation of the chemicals (herbicide and antidote) the containers with the covered seedbed were treated with an initial overhead irrigation equivalent to 0.6 cm rainfall, then subsequently sub-irrigated as required on greenhouse benches.
(§4) In the series of greenhouse tests described below, for routine screening purposes the herbicide/antidote compositions were tested in crop/weed combinations involving corn as the crop and either or both of the weeds barnyardgrass (Echinochloa crusgalli), a monocotyledonous weed, and velvetleaf (Abutilon theophrasti), a dicotyledonous weed. In the tables below, these weeds are indicated by the symbols "BYG" and "VL", respectively.
(§5) In this example, tests were conducted as in the preceding Examples 18-20, except here the co-herbicidal component was SUTAN® PLUS, a commercial product comprising as the active herbicidal ingredient the compound butylate (Herbicide No. 10) and an antidote […] (Antidote No. 1). Again, the antidotal compounds herein were Nos. 1, 2, 7, 13 and 15. Procedure II was used.

[2] = tested on: velvetleaf (Abutilon theophrasti); test: as above
Method: as §1, §2, §3, §4, §5

[3] = tested on: barnyardgrass (Echinochloa crusgalli); test: Example 6, Procedure II: Herbicide No. 1 + alachlor (No. 7) with antidotes
Method: as §1, §2, §3, §4
(§6) This example was designed to investigate the antidotal efficacy of a plurality of antidotal compounds against a composition comprising Herbicide No. 1 in combination with Herbicide No. 7 (alachlor). The antidotal compounds used herein were Nos. 1, 2, 7, 13 and 15.
(§7) In this example, Procedure II described above was followed. The data from the tests in this example is shown in Table 6 and represents averages of duplicate replications.

[4] = tested on: velvetleaf (Abutilon theophrasti); test: as above
Method: as §1, §2, §3, §4, §6, §7

[5] = tested on: corn; test: Example 7, Procedure II: Herbicide No. 1 + metolachlor (No. 12) with antidotes
Method: as §1, §2, §3, §7
The tests in this example followed the same procedure and antidotes used in Example 6. However, Herbicide No. 12 (metolachlor) was used as the co-herbicide with Herbicide No. 1.

[6] = tested on: barnyardgrass (Echinochloa crusgalli); test: Example 8, Procedure II: Herbicide No. 1 + butachlor (No. 9) with antidotes
Method: as §1, §2, §3, §4
(§8) In this test, the efficacy of the same five antidotes used in Examples 6 and 7 was investigated in compositions comprising Herbicide No. 1 and as a co-herbicide, butachlor (Herbicide No. 9), active ingredient in MACHETE® herbicide, a leading commercial rice herbicide. The test procedure used in this example was the same as that in Examples 6 and 7.

[7] = tested on: velvetleaf (Abutilon theophrasti); test: as above
Method: as §1, §2, §3, §4, §8

[8] = tested on: corn; test: Example 21, Procedure II: Herbicide No. 1 + SUTAN PLUS (butylate + antidote) with antidotes
Method: as §1, §2, §3, §5

[9] = tested on: corn; test: Example 9, Procedure II: Herbicide No. 1 + pretilachlor (No. 13) with antidotes
Method: as §1, §2, §3
In this example the safening effect on a composition comprising Herbicide No. 1 and another leading rice herbicide, i.e., Herbicide No. 13, was investigated using the same antidotes and test procedure described in the preceding example. Herbicide No. 13 is pretilachlor, active ingredient used in the commercial rice herbicides RIFIT®, SOFIT® and SOFIT® SUPER.

[10] = tested on: corn; test: Example 11, Procedure II: Herbicide No. 1 + metazachlor (No. 14) with antidotes; conditions: for % Injury Corn: no antidote
Method: as §1, §2, §3
In this example, yet another α-chloroacetanilide co-herbicide, metazachlor (Herbicide No. 14) was combined with Herbicide No. 1 for investigation of the effect of various safeners on that composition. Metazachlor is the active ingredient in the commercial herbicide BUTISAN® S, used here as a 500 g/L formulation.

[11] = tested on: corn; test: Example 10, Procedure II: Herbicide No. 1 + propachlor (No. 5) with antidotes; conditions: for % Injury Corn: no antidote
Method: as §1, §2, §3
In this test, the safening effect of various antidotes on the herbicidal combination of Herbicide No. 1 and another α-chloroacetanilide co-herbicide, propachlor, (Herbicide No. 5) was investigated. Propachlor is the active ingredient in the commercial herbicide RAMROD®. Procedure II was also used in this test as in the preceding example.

[12] = Herbicide No.1 0.56 kg/ha + SUTAN + 8.96 kg/ha, antidote 2.24 kg/ha
[13] = Herbicide No.1 0.56 kg/ha + SUTAN + 8.96 kg/ha, antidote 8.96 kg/ha
[14] = Herbicide No.1 1.12 kg/ha + SUTAN + 8.96 kg/ha, antidote 2.24 kg/ha
[15] = Herbicide No.1 1.12 kg/ha + SUTAN + 8.96 kg/ha, antidote 8.96 kg/ha
[16] = Herbicide No.1 0.14 + No.7 4.48 kg/ha + antidote 2.24 kg/ha
[17] = Herbicide No.1 0.14 + No.7 4.48 kg/ha + antidote 8.96 kg/ha
[18] = Herbicide No.1 0.56 + No.7 4.48 kg/ha + antidote 2.24 kg/ha
[19] = Herbicide No.1 0.56 + No.7 4.48 kg/ha + antidote 8.96 kg/ha
[20] = Herbicide No.1 0.14 + No.12 3.36 kg/ha + antidote 2.24 kg/ha
[21] = Herbicide No.1 0.14 + No.12 3.36 kg/ha + antidote 8.96 kg/ha
[22] = Herbicide No.1 0.56 + No.12 3.36 kg/ha + antidote 8.96 kg/ha
[23] = Herbicide No.1 0.14 + No.9 2.24 kg/ha + antidote 2.24 kg/ha
[24] = Herbicide No.1 0.14 + No.9 2.24 kg/ha + antidote 8.96 kg/ha
[25] = Herbicide No.1 0.56 + No.9 2.24 kg/ha + antidote 2.24 kg/ha
[26] = Herbicide No.1 0.56 + No.9 2.24 kg/ha + antidote 8.96 kg/ha
[27] = Herbicide No.1 0.56 kg/ha alone
[28] = Herbicide No.1 1.12 kg/ha alone
[29] = Herbicide No.1 0.14 kg/ha alone
[30] = Herbicide No.1 0.14 + No.7 4.48 kg/ha, no antidote
[31] = Herbicide No.1 0.56 + No.7 (alachlor) 4.48 kg/ha, no antidote, average of duplicates
[32] = Herbicide No.1 0.14 + No.9 2.24 kg/ha, no antidote
[33] = Herbicide No.1 0.56 + No.9 (butachlor) 2.24 kg/ha, no antidote
[34] = Herbicide No.1 0.56 kg/ha + SUTAN + 8.96 kg/ha, no added antidote
[35] = Herbicide No.1 1.12 kg/ha + SUTAN + 8.96 kg/ha, no added antidote

O=C1OC(=O)c2cccc3cccc1c23 [compound 2]
% Injury BYG [1, 12]: 5% | % Injury BYG [1, 13]: 10% | % Injury BYG [1, 14]: 45% | % Injury BYG [1, 15]: 5% | % Injury VL [2, 12]: 55% | % Injury VL [2, 13]: 65% | % Injury VL [2, 14]: 70% | % Injury VL [2, 15]: 70% | % Injury BYG [3, 16]: 100% | % Injury BYG [3, 17]: 100% | % Injury BYG [3, 18]: 100% | % Injury BYG [3, 19]: 100% | % Injury VL [4, 16]: 70% | % Injury VL [4, 17]: 75% | % Injury VL [4, 18]: 90% | % Injury VL [4, 19]: 90% | % Injury Corn [5, 20]: 0% | % Injury Corn [5, 21]: 0% | % Injury Corn ([5]; Herbicide No.1 0.56 + No.12 3.36 kg/ha + antidote 2.24 kg/ha): 10% | % Injury Corn [5, 22]: 15% | % Injury BYG [6, 23]: 99% | % Injury BYG [6, 24]: 99% | % Injury BYG [6, 25]: 99% | % Injury BYG [6, 26]: 98% | % Injury VL [7, 23]: 70% | % Injury VL [7, 24]: 75% | % Injury VL [7, 25]: 90% | % Injury VL [7, 26]: 80% | % Injury Corn [8, 12]: 10% | % Injury Corn [8, 13]: 5% | % Injury Corn [8, 14]: 0% | % Injury Corn [8, 15]: 15%

O=C(C(Cl)Cl)N1CCOC12CCCCC2 [compound 7]
% Injury BYG [1, 12]: 25% | % Injury BYG [1, 13]: 10% | % Injury BYG [1, 14]: 40% | % Injury BYG [1, 15]: 10% | % Injury VL [2, 12]: 45% | % Injury VL [2, 13]: 65% | % Injury VL [2, 14]: 65% | % Injury VL [2, 15]: 45% | % Injury BYG [3, 16]: 100% | % Injury BYG [3, 17]: 100% | % Injury BYG [3, 18]: 100% | % Injury BYG [3, 19]: 100% | % Injury VL [4, 16]: 75% | % Injury VL [4, 17]: 75% | % Injury VL [4, 18]: 90% | % Injury VL [4, 19]: 90% | % Injury Corn [5, 20]: 10% | % Injury Corn [5, 21]: 10% | % Injury Corn [5, 22]: 15% | % Injury BYG [6, 23]: 97% | % Injury BYG [6, 24]: 99% | % Injury BYG [6, 25]: 99% | % Injury BYG [6, 26]: 99% | % Injury VL [7, 23]: 70% | % Injury VL [7, 24]: 65% | % Injury VL [7, 25]: 75% | % Injury VL [7, 26]: 65% | % Injury Corn ([9]; Herbicide No.1 0.14 kg/ha + Herbicide No.13 2.24 kg/ha, antidote rate 2.24 kg/ha): 10% | % Injury Corn ([9]; Herbicide No.1 0.14 kg/ha + Herbicide No.13 2.24 kg/ha, antidote rate 8.96 kg/ha): 0% | % Injury Corn ([9]; Herbicide No.1 0.56 kg/ha + Herbicide No.13 2.24 kg/ha, antidote rate 2.24 kg/ha): 30% | % Injury Corn ([9]; Herbicide No.1 0.56 kg/ha + Herbicide No.13 2.24 kg/ha, antidote rate 8.96 kg/ha): 25% | % Injury Corn [8, 12]: 5% | % Injury Corn [8, 13]: 20% | % Injury Corn [8, 14]: 15% | % Injury Corn [8, 15]: 15%

COC(=O)c1c(Cl)nn(C)c1S(=O)(=O)NC(=O)Nc1nc(OC)cc(OC)n1 [Herbicide No. 1]
% Injury Corn [10, 27]: 65% | % Injury Corn [10, 28]: 65% | % Injury Corn [11, 29]: 20% | % Injury Corn [11, 27]: 30% | % Injury BYG [3, 30]: 100% | % Injury BYG [3, 29]: 20% | % Injury BYG [3, 31]: 100% | % Injury BYG [3, 27]: 70% | % Injury VL [4, 30]: 70% | % Injury VL [4, 29]: 40% | % Injury VL [4, 31]: 85% | % Injury VL [4, 27]: 60% | % Injury Corn ([5]; Herbicide No.1 0.14 + No.12 3.36 kg/ha, no antidote): 20% | % Injury Corn ([5]; Herbicide No.1 0.14 + No.12 3.36 kg/ha, no antidote (second such line, r25)): 0% | % Injury Corn ([5]; Herbicide No.1 0.56 + No.12 3.36 kg/ha, no antidote (second such line, r24)): 10% | % Injury Corn ([5]; Herbicide No.1 0.56 + No.12 (metolachlor) 3.36 kg/ha, no antidote): 30% | % Injury BYG [6, 32]: 100% | % Injury BYG [6, 29]: 55% | % Injury BYG [6, 33]: 100% | % Injury BYG [6, 27]: 93% | % Injury VL [7, 32]: 70% | % Injury VL [7, 29]: 70% | % Injury VL [7, 33]: 85% | % Injury VL [7, 27]: 85% | injury to corn ([9]; Herbicide No. 1 0.56 kg/ha + Herbicide No. 13 2.24 kg/ha in combination, no antidote): 65%

CC1(C)OC(c2ccco2)CN1C(=O)C(Cl)Cl (centres unmarked) [Antidote No. 15, Oxazolidine, 3-(dichloroacetyl)-5-(2-furanyl)-2,2-dimethyl]
safening of corn, assessment in words ([10]; Herbicides 1 and 14, Table 11): outperformed the antidotes (2 and 13) of other chemistries | safening of corn, assessment in words ([11]; Herbicide Nos. 1 and 5, Table 10): best safening effect | safening of corn, assessment in words ([9]; Herbicide Nos. 1 and 13, Table 9): commercial-level safening of corn

COC(=O)c1c(Cl)nn(C)c1S(=O)(=O)NC(=O)Nc1nc(OC)cc(OC)n1 [No.1]
% Injury BYG [1, 34]: 20% | % Injury BYG [1, 27]: 10% | % Injury BYG [1, 35]: 50% | % Injury BYG [1, 28]: 10% | % Injury VL [2, 34]: 60% | % Injury VL [2, 27]: 50% | % Injury VL [2, 35]: 70% | % Injury VL [2, 28]: 65% | % Injury Corn [8, 34]: 10% | % Injury Corn [8, 27]: 0% | % Injury Corn [8, 35]: 5% | % Injury Corn [8, 28]: 30%
